In BindingDB's records for patent US20240343747 (Accro Bioscience (HK), 2024):

What was measured:
Assay in all cases: Competitive Binding Assay
[1] = biological target: T1, Tyrosine-protein kinase JAK1 [837-1142] (Homo sapiens, UniProt P23458)
T1 construct: 837-1142
Description: (§1) The lysates were centrifuged and filtered to remove cell debris. The remaining kinases were produced in HEK-293 cells and subsequently tagged with DNA for qPCR detection. Streptavidin coated magnetic beads were treated with biotinylated small molecule ligands for 30 minutes at room temperature to generate affinity resins for kinase assays. The liganded beads were blocked with excess biotin and washed with blocking buffer (SeaBlock (Pierce), 1% BSA, 0.05 % Tween 20, 1 mM DTT) to remove unbound ligand and to reduce non-specific binding. […] Test compounds were prepared as 111X stocks in 100% DMSO. Dissociation constants (Kds) were determined using an 11-point 3-fold compound dilution series with three DMSO control points. All compounds for Kd measurements are distributed by acoustic transfer (non-contact dispensing) in 100% DMSO. The compounds were then diluted directly into the assays such that the final concentration of DMSO was 0.9%. All reactions performed in polypropylene 384-well plate. Each was a final volume of 0.02 ml. The assay plates were incubated at room temperature with shaking for 1 hour and the affinity beads were washed with wash buffer (1×PBS, 0.05% Tween 20). The beads were then re-suspended in elution buffer (1×PBS, 0.05% Tween 20, 0.5 μM nonbiotinylated affinity ligand) and incubated at room temperature with shaking for 30 minutes. The kinase concentration in the eluates was measured by qPCR.

[2] = biological target: T2, Tyrosine-protein kinase JAK2 [808-1132] (Homo sapiens, UniProt O60674)
T2 construct: 808-1132
T2 sequence (O60674 798-1132): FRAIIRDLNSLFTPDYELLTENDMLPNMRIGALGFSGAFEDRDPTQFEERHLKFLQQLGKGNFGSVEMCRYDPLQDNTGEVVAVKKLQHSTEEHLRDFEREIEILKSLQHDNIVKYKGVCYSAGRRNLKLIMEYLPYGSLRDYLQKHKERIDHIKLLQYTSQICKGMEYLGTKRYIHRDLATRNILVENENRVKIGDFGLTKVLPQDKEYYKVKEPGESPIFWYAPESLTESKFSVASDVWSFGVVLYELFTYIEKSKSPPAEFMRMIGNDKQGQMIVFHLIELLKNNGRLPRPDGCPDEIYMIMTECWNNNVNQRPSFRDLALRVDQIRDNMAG
Description: as §1

[3] = biological target: T3, Non-receptor tyrosine-protein kinase TYK2 [575-869] (Homo sapiens, UniProt P29597)
T3 construct: 575-869
T3 sequence (P29597 575-869): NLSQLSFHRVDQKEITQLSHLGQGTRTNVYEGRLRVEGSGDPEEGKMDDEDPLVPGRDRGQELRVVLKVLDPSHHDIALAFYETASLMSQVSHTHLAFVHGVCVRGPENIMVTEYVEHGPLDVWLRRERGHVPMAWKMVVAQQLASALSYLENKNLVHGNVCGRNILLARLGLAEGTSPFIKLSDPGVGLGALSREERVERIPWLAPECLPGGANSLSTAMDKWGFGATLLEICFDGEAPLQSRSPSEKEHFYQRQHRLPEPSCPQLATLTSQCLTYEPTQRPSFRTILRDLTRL
Description: as §1

T1 sequence (P23458 837-1142): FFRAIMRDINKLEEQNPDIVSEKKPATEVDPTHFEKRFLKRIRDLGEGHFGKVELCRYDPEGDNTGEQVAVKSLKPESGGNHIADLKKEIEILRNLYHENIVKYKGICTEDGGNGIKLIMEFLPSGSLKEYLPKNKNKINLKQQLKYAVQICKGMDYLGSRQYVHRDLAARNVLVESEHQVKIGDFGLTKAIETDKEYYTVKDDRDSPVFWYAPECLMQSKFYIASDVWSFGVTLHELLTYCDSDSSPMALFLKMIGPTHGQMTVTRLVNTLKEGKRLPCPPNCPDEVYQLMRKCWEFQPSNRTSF

Kd [1]: > 30 µM
Kd [2]: > 30 µM
Kd [3]: 0.014 nM
SMILES: [2H]C([2H])([2H])NC(=O)c1nnc(NC(=O)C2CC2)cc1Nc1cccc(-c2cc(P(=O)(C3CC3)C3CC3)n(C)n2)c1OC [US20240343747, Example B41]
